Data from US20250002450A1, “CATIONIC STEROID COMPOUNDS, METHOD OF OBTAINING THEREOF, FORMULATIONS COMPRISING THEREOF AND THEIR USES” (UNIVERSIDADE DO PORTO, priority 2021, published 2025).
Values after ≈ are worked out from the molar mass of the structure shown.

Tests used:
[1] = test system: P. aeruginosa 33b (PDR); experiment: Antibacterial MIC/MBC (broth microdilution); type: cell-based, Pseudomonas aeruginosa
Description: (§1) Twelve reference bacterial strains and nine MDR clinically relevant bacterial strains were used in this study. Gram-negative bacteria comprised reference strains E. coli ATCC 25922, K. pneumoniae ATCC 13883, Salmonella enterica serovar Typhimurium CECT 443, P. aeruginosa ATCC 27853, A. baumannii ATCC 19606, C. jejuni ATCC 33560 (ATCC—American Type Culture Collection; CECT—Colección Espanola de Cultivos Tipo); clinical isolates E. coli SA/2, an extended-spectrum β-lactamase (ESBL)-producing strain and P. aeruginosa 33b, a pan-drug-resistant isolate; and animal isolates C. jejuni P5/4, a ciprofloxacin-resistant strain, C. jejuni 4432, C. jejuni 4433, C. jejuni 4448, and E. coli 2252, a COL-resistant strain [42]. Gram-positive strains included S. aureus ATCC 29213, E. faecalis ATCC 29212, S. pyogenes ATCC 19615, and environmental isolates methicillin-resistant S. aureus (MRSA) 66/1 [43], and VAN-resistant enterococci (VRE) E. faecalis B3/101 [44]. Gram-negative fish pathogens Yersinia ruckeri ATCC 29473, Listonella anguillarum ATCC 1924, and Tenacibaculum maritimum ATCC 43397 were also included.
(§2) Strains were kept in Trypto-Casein Soy agar (TSA—Biokar Diagnostics, Allone, Beauvais, France) slants and, before each assay, were sub-cultured in Mueller-Hinton agar (MHA—Biokar Diagnostics, Allone, Beauvais, France). Y. ruckeri ATCC 29473 and L. anguillarum ATCC 1924 were kept in Nutrient Agar (Condalab, Madrid, Spain) and T. maritimum ATCC 43397 was kept in TMM agar (Condalab, Madrid, Spain), and were sub-cultured in the respective culture media before each assay. For S. pyogenes ATCC 19615, CAMHB was supplemented with 3.75% lysed horse blood (LBH—Oxoid, Basingstoke, England), whereas for C. jejuni it was supplemented with 2.5% LHB. Colony-forming unit counts of the inoculum were conducted to determine the initial inoculum size (which should be approximately 5×10^5 CFU/mL). Sterility and growth controls were included in each assay. The 96-well U-shaped untreated polystyrene microtiter plates were incubated for 20 h at 37 degrees C. (42 degrees C. for C. jejuni, in a microaerophilic atmosphere) and the minimal inhibitory concentration (MIC) was determined as the lowest concentration of compound that prevented visible growth. The minimal bactericidal concentration (MBC) was determined by spreading 100 μL of the content of the wells with no visible growth on MH plates. The MBC was determined as the lowest concentration of compound that killed 99.9% of the initial inoculum after overnight incubation at 37 degrees C. Two independent assays were performed for reference and MDR strains.
(§3) An initial screening of the antibacterial activity of the compounds was performed by the Kirby-Bauer disk diffusion method, as recommended by the Clinical and Laboratory Standards Institute (CLSI). Briefly, sterile 6 mm blank paper disks (Oxoid, Basingstoke, England) impregnated with 15 μg of each compound were placed on inoculated MH agar plates. A blank disk with dimethylsulfoxide (DMSO) was used as a negative control. MH inoculated plates were incubated for 18-20 h at 37 degrees C. At the end of incubation, the inhibition halos where measured. The MIC was used to determine the antibacterial activity of each compound, in accordance with the recommendations of the CLSI. Two-fold serial dilutions of the compounds were prepared in Mueller-Hinton Broth 2 (MHB2—Sigma-Aldrich, St. Louis, MO, USA) within the concentration range of 0.062-64 μg/mL. CTX ranging between 0.031-16 μg/mL was used as a control. Sterility and growth controls were included in each assay. Purity checks and colony counts of the inoculum suspensions were also performed in order to ensure that the final inoculum density closely approximates the intended number (5×10^5 CFU/mL). The MIC was determined as the lowest concentration of compound that inhibited growth of the bacteria. The MBC was assessed by spreading 10 μL of culture collected from wells showing no visible growth on MH agar plates. […]

[2] = test system: Staphylococcus aureus ATCC 29213; experiment: Antibacterial MIC/MBC (broth microdilution); type: cell-based
Procedure, shortened: (§4)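 Visible growth inhibition after 20 h at 37 degrees C defines the MIC, with compounds tested at 0.062-64 μg/mL in Mueller-Hinton broth 2 against about 5×10^5 CFU/mL. Bactericidal endpoint: 99.9% reduction of the starting inoculum on MH agar subculture.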

[3] = test system: Listonella anguilarum ATCC 1924; experiment: Antibacterial MIC/MBC (broth microdilution); type: cell-based
Procedure, shortened: as §4

[4] = test system: Salmonella enterica serovar Typhimurium CECT 443; experiment: Antibacterial MIC/MBC (broth microdilution); type: cell-based
Procedure, shortened: as §4

[5] = test system: Klebsiella pneumoniae ATCC 13883; experiment: Antibacterial MIC/MBC (broth microdilution); type: cell-based
Procedure, shortened: as §4

[6] = test system: Yersinia ruckeri ATCC 29473; experiment: Antibacterial MIC/MBC (broth microdilution); type: cell-based
Procedure, shortened: as §4

[7] = test system: Gram-negative and Gram-positive bacteria; experiment: Antibacterial activity, whole strain panel; type: cell-based
Description: as §1, §2, §3

[8] = test system: C. albicans ATCC 10231; experiment: Mitochondrial dehydrogenases activity, MTT reduction assay; type: cell-based, Candida albicans; details: 2 h
Description: In order to determine whether compound 1 could also affect mitochondrial function, MTT reduction assay was performed. In this assay, tetrazolium salts are reduced to purple formazan derivatives by mitochondrial dehydrogenases, which can be measured spectrophotometrically and reported to mitochondrial activity and, indirectly, to cell viability. In this assay, cells were exposed to the test compounds for 2 h ([FIG. 11]). […] An increase in reactive oxygen species (ROS) has been linked to azoles activity: even though their primary mode of action is the inhibition of ergosterol synthesis, they also induce accumulation of ROS, which enhances their antifungal activity and translates into an increase in mitochondrial activity at inhibitory concentrations. […] Mitochondrial dehydrogenase activity was evaluated by the MTT assay, as previously described, with some modifications. Cell suspensions of C. albicans ATCC 10231 were prepared in the same manner as described above and, after overnight incubation at 36° C., were centrifuged at 3500 rpm for 15 min, the supernatant was removed, and the cells were carefully resuspended in 2 mL of RPMI. Test conditions and controls were the same as described above, but the time of exposure to the test compounds was 2 h. After the exposure time, cell suspensions were centrifuged at 3500 rpm for 10 min, the supernatant was removed, and 500 μL of MTT solution (0.5 mg/mL in RPMI, at 35° C.) (Thiazolyl Blue Tetrazolium Bromide, Alfa Aesar, Ward Hill, MA, USA) were added. After a 1 h incubation at 35° C., the insoluble formazan product resulting from the conversion of MTT by mitochondrial dehydrogenases of metabolically active cells was solubilized with 300 μL of DMSO. 100 μL of each sample were transferred in duplicate to a microtiter plate and the extent of the reduction of MTT to formazan was quantified by measuring the absorbance at 570 nm. Three independent assays were performed in duplicate, and the results are expressed as percentage of MTT reduction, using the untreated cells as control.

[9] = Listonella anguilarum ATCC 1924
[10] = Klebsiella pneumoniae ATCC 13883

In the case of `C[C@H](CCC(=O)NCCN)[C@H]1CC[C@H]2[C@@H]3CC[C@@H]4C[C@H](O)CC[C@]4(C)[C@H]3C[C@H](O)[C@]12C` [Compound 1, (R)—N-(2-aminoethyl)-4-((3R,5R,8R,9S,10S,12S,13R,14S,17R)-3,12-dihydroxy-10,13-dimethylhexadecahydro-1H-cyclopenta[a]phenanthren-17-yl) pentanamida], the “antibacterial activity (in words)” value ([1]; P. aeruginosa 33b) is reported as “active”, the MBC ([1]; P. aeruginosa 33b (PDR)) is reported as >64 µg/mL and the MIC ([1]; P. aeruginosa 33b (PDR)) is reported as 64 µg/mL (≈ 147 µM). The MBC [2] was 16 µg/mL (≈ 36.8 µM), the MIC [2] was 16 µg/mL (≈ 36.8 µM) and the “antibacterial activity (in words)” value ([3]; Listonella anguilarum) was “active”. The MBC [3, 9] was 32 µg/mL (≈ 73.6 µM), the MIC [3, 9] was 16 µg/mL (≈ 36.8 µM) and the MBC [4] was 16 µg/mL (≈ 36.8 µM). The MIC [4] was 16 µg/mL (≈ 36.8 µM), the “antibacterial activity (in words)” value [4] was “exhibited antimicrobial activity” and the “antibacterial activity (in words)” value ([5]; K. pneumoniae ATCC 13883) was “active”. For the same compound, the MBC [5, 10] was 64 µg/mL (≈ 147 µM), the MIC [5, 10] was 64 µg/mL (≈ 147 µM) and the MBC [6] was 32 µg/mL (≈ 73.6 µM). The MIC [6] was 16 µg/mL (≈ 36.8 µM), the “antibacterial activity (in words)” value [6] was “displayed antibacterial activity” and the “activity against Gram-negative bacteria (in words)” value ([7]; Gram-negative bacteria) was “exhibited activities”. The “spectrum of antibacterial activity (in words)” value ([7]; all bacterial strains tested) was “active in every bacterial strain tested” and the “mitochondrial activity (MTT reduction) vs untreated control” value ([8]; 128, 64, and 32 μg/mL (2×MIC, MIC, ½×MIC)) was “significant reduction of mitochondrial activity”.

In the case of `OC(Cn1cncn1)(Cn1cncn1)c1ccc(F)cc1F` [Fluconazole, reference compound], the “mitochondrial activity (MTT reduction) vs untreated control” value ([8]; 8 μg/mL) is reported as “increase (non-significant)”.
